Biological target: T1, human TLR9 (Homo sapiens, UniProt Q9NR96)
T1 sequence (Q9NR96 26-1032): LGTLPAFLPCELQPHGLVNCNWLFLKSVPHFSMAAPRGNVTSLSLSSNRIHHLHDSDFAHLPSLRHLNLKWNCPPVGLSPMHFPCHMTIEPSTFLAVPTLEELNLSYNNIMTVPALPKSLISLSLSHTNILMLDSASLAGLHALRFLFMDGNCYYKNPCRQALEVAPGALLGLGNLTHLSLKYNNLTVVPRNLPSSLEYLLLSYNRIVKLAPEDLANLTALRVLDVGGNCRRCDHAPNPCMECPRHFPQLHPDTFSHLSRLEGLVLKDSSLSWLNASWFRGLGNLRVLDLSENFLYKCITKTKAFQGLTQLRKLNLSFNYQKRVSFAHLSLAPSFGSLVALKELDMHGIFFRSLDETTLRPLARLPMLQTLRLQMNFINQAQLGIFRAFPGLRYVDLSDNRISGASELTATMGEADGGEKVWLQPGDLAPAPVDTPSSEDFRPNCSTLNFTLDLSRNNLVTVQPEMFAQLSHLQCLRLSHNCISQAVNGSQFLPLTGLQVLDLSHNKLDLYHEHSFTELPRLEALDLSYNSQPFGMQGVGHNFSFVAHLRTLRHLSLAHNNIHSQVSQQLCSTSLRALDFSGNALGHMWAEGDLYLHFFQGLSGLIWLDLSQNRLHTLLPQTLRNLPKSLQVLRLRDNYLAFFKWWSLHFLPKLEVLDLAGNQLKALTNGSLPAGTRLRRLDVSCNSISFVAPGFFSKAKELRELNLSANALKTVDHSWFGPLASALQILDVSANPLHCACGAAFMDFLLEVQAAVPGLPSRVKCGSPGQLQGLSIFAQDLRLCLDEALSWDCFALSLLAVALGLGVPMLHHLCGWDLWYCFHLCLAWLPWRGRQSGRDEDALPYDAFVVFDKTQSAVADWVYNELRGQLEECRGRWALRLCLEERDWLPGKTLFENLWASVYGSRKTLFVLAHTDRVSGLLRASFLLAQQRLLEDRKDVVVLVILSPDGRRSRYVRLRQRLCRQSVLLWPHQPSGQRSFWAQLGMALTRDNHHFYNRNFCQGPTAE
Assay: HEK293-Blue-hTLR-9 cells assay (SEAP reporter, ODN2006 stimulation)
Format: cell-based
Details: HEK293-Blue-hTLR9 cells, ODN2006 ligand, 20 hrs incubation, antagonist
Description: The following tests were carried out in order to determine the activity of the compounds of formula (I) in HEK293-Blue-hTLR-7/8/9 cells assay.
HEK293-Blue-hTLR-9 Cells Assay:
A stable HEK293-Blue-hTLR-9 cell line was purchased from InvivoGen (Cat. #: hkb-htlr9, San Diego, Calif., USA). These cells were originally designed for studying the stimulation of human TLR9 by monitoring the activation of NF-κB. A SEAP (secreted embryonic alkaline phosphatase) reporter gene was placed under the control of the IFN-β minimal promoter fused to five NF-κB and AP-1-binding sites. The SEAP was induced by activating NF-κB and AP-1 via stimulating HEK-Blue hTLR9 cells with TLR9 ligands. Therefore the reporter expression was declined by TLR9 antagonist under the stimulation of a ligand, such as ODN2006 (Cat. #: tlrl-2006-1, Invivogen, San Diego, Calif., USA), for incubation of 20 hrs. The cell culture supernatant SEAP reporter activity was determined using QUANTI-Blue™ kit (Cat. #: rep-qb1, Invivogen, San Diego, Calif., USA) at a wavelength of 640 nm, a detection medium that turns purple or blue in the presence of alkaline phosphatase.
HEK293-Blue-hTLR9 cells were incubated at a density of […] cells/mL in a volume of 170 μL in a 96-well plate in Dulbecco's Modified Eagle's medium (DMEM) containing 4.5 g/L glucose, 50 U/mL penicillin, […], 2 mM L-glutamine, 10% (v/v) heat-inactivated fetal bovine serum with addition of 20 μL test compound in a serial dilution in the presence of final DMSO at 1% and 10 μL of 20 uM ODN2006 in above DMEM, perform incubation under 37° C. in a CO2 incubator for 20 hrs. Then 20 μL of the supernatant from each well was incubated with 180 μL Quanti-blue substrate solution at 37° C. for 2 hrs and the absorbance was read at 620˜655 nm using a spectrophotometer. The signalling pathway that TLR9 activation leads to downstream NF-κB activation has been widely accepted, and therefore similar reporter assay was modified for evaluating TLR9 antagonist.

SMILES | IC50 [nM]
C[C@@H]1CN(c2ccc(C#N)c3ncsc23)C[C@H](CN2CC3(CCCNC3)C2)O1 [Example 4, 7-[(2S,6R)-2-(2,8-diazaspiro[3.5]nonan-2-ylmethyl)-6-methyl-morpholin-4-yl]-1,3-benzothiazole-4-carbonitrile] | 101
C[C@@H]1CN(c2ccc(C#N)c3ncsc23)C[C@H](CN2CCC3(CCCN(C)C3)CC2)O1 [Example 10, 7-[(2R,6S)-2-methyl-6-[(2-methyl-2,9-diazaspiro[5.5]undecan-9-yl)methyl]morpholin-4-yl]-1,3-benzothiazole-4-carbonitrile] | 77
C[C@@H]1CN(c2ccc(C#N)c3ncsc23)C[C@H](CN2CCC3(CCCNC3)C2)O1 (stereo partly drawn) [Example 1, 7-[(2S,6R)-2-(2,9-diazaspiro[4.5]decan-2-ylmethyl)-6-methyl-morpholin-4-yl]-1,3-benzothiazole-4-carbonitrile] | 87
C[C@@H]1CN(c2ccc(C#N)c3ncsc23)C[C@H](C(=O)NC2CCN(C)CC2)O1 [Example 11, (2R,6R)-4-(4-cyano-1,3-benzothiazol-7-yl)-6-methyl-N-(1-methyl-4-piperidyl)morpholine-2-carboxamide] | 17500
C[C@@H]1CN(c2ccc(C#N)c3ncsc23)C[C@H](CN2CCC3(CCNC3)CC2)O1 [Example 6, 7-[(2S,6R)-2-(2,8-diazaspiro[4.5]decan-8-ylmethyl)-6-methyl-morpholin-4-yl]-1,3-benzothiazole-4-carbonitrile] | 98
C[C@@H]1CN(c2ccc(C#N)c3ncsc23)C[C@H](CN2CCC3(CCCNC3)CC2)O1 [Example 3, 7-[(2S,6R)-2-(2,9-diazaspiro[5.5]undecan-9-ylmethyl)-6-methyl-morpholin-4-yl]-1,3-benzothiazole-4-carbonitrile] | 77
C[C@@H]1CN(c2ccc(C#N)c3ncsc23)C[C@H](CN2[C@@H]3CC[C@H]2C[C@@H](N)C3)O1 [Example 8, Endo-7-[(2S,6R)-2-[[(1R,5S)-3-amino-8-azabicyclo[3.2.1]octan-8-yl]methyl]-6-methyl-morpholin-4-yl]-1,3-benzothiazole-4-carbonitrile] | 109
C[C@@H]1CN(c2ccc(C#N)c3ncsc23)C[C@H](CN2[C@@H]3CC[C@H]2C[C@H](N)C3)O1 [Example 9, Exo-7-[(2S,6R)-2-[[(1S,5R)-3-amino-8-azabicyclo[3.2.1]octan-8-yl]methyl]-6-methyl-morpholin-4-yl]-1,3-benzothiazole-4-carbonitrile] | 65
C[C@@H]1CN(c2ccc(C#N)c3ncsc23)C[C@H](CN2CCC(N3CCCCC3)CC2)O1 [Example 7, 7-[(2R,6S)-2-methyl-6-[[4-(1-piperidyl)-1-piperidyl]methyl]morpholin-4-yl]-1,3-benzothiazole-4-carbonitrile] | 118
C[C@@H]1CN(c2ccc(C#N)c3ncsc23)C[C@H](C(=O)NCC2CN(C)CCO2)O1 (stereo partly drawn) [Example 12, (2R,6R)-4-(4-cyano-1,3-benzothiazol-7-yl)-6-methyl-N-[(4-methylmorpholin-2-yl)methyl]morpholine-2-carboxamide] | 36800
C[C@@H]1CN(c2ccc(C#N)c3ncsc23)C[C@H](CN2CCC3(CCNCC3)CC2)O1 [Example 5, 7-[(2S,6R)-2-(3,9-diazaspiro[5.5]undecan-3-ylmethyl)-6-methyl-morpholin-4-yl]-1,3-benzothiazole-4-carbonitrile] | 145
C[C@@H]1CN(c2ccc(C#N)c3ncsc23)C[C@H](CN2CCC(N)CC2)O1 [Example 2, 7-[(2S,6R)-2-[(4-amino-1-piperidyl)methyl]-6-methyl-morpholin-4-yl]-1,3-benzothiazole-4-carbonitrile] | 300
